Results published in patent US5096693A, “Stable stannous chloride composition for labeling with radioactive technetium” (Nihon Medi-Physics Co., Ltd., priority 1984, dated 1992).

Experiments:
[1] = system: mice; test: Acute toxicity with intravenous administration, mice; format: in vivo, ICR strain mice; settings: 14 days
Protocol: (§1) In this Example, the acute toxicity with intravenous administration of the non-radioactive labeling composition to rats or mice was evaluated. Namely, sterilized, pyrogen-free and oxygen-free water (1.0 ml) was added to a vial containing "FDSn-RBC" to make a stannous chloride solution (20 μmol/ml, […]). The resultant solution was intravenously administered to male and female ICR strain mice and S.D. strain rats. After 14 days, the accumulative death percentage was determined, and the lethal dose 50 (LD50) was calculated by the Litchfield-Wilcoxon's method.

[2] = system: rats; test: Acute toxicity with intravenous administration, rats; format: in vivo, S.D. strain rats; settings: 14 days
Protocol: as §1
The dose of the non-radioactive labeling composition to human beings may be 9.48 μg/kg (with the assumption that a total amount of one vial of FDSn-COL is administered to a person of 60 kilograms in bodyweight) as stannous chloride at the maximum in case of using for preparation of ^99m Tc-labeled tin colloid, and 31.95 μg/kg (corresponding to 20 μg/kg of stannous ion) in case of using for labeling of red blood cells in a human body. When these doses are compared with the LD50 values of female rats which are considered to be the most sensitive among the tested animals, said dose is about 1/1790 that of the LD50 value in case of preparation of ^99m Tc-labeled tin colloid and about 1/530 that of the LD50 value in case of labeling of red blood cells in a human being.

## [Cl][Sn][Cl] [stannous chloride]
[1]; female mice
  LD50: 28 ± 3 mg/kg
[1]; male mice
  LD50: 33 ± 3 mg/kg
[2]; female rats
  LD50: 17 ± 2 mg/kg
[2]; male rats
  LD50: 18 ± 3 mg/kg
